Source: patent US20170226150A1, “TRITERPENOID COMPOSITION OF ANTRODIA CINNAMOMEA, PREPARATION AND ANALYSIS METHOD THEREOF” (KAOHSIUNG MEDICAL UNIVERSITY, priority 2011, published 2017)
Values after ≈ are worked out from the molar mass of the structure shown.

Assays:
[1] = tested on: HL 60 human promyelocytic leukemia cells; assay: Cytotoxicity test, MTT colorimetric method, HL 60; assay type: cell-based
Protocol: (§1) The cytotoxicity test of the obtained major ergostane triterpenoid compounds (zhankuic acid A, zhankuic acid C, antcin C and antcin K) and their stereoisomeric pure compounds (compounds E1 to E6 and E9 to E10) were performed on three leukemia cell lines using MTT (3-(4,5-dimethylthiazol-2-yl)-2,5-diphenyltetrazolium bromide) colorimetric method, and the results were referred to Table 8.

[2] = tested on: CCRF-CEM human acute lymphoblastic leukemia cells; assay: Cytotoxicity test, MTT colorimetric method, CCRF-CEM; assay type: cell-based
Protocol: as §1

[3] = tested on: Molt 4 human acute lymphoblastic leukemia cells; assay: Cytotoxicity test, MTT colorimetric method, Molt 4; assay type: cell-based
Protocol: as §1

[4] = Solubility in solvents for optical rotation measurement; assay type: physicochemical; conditions: methanol or ethanol
Protocol: After determining the absolute configuration, we tried to measure the optical rotation aiming to complete the spectral profile for the isolated compounds. In a previous report, the mixture form of zhankuic acid A was dissolved in methanol to measure its optical rotation. […] The solubility of compounds E9 and E10 improved through using acetone-methanol mixture. Considering compounds solubility and the convenience of collecting physical and spectral data using single solvent, pyridine was used in optical rotation experiment. The optical rotation of compound E9 was [α]D^25+32.1 (c 0.70, pyridine), and that of compound E10 was [α]D^25+9.0 (c 0.84, pyridine).

Molecule | IC50 (μg/ml) HL 60 [1] [µg/mL] | IC50 (μg/ml) CCRF-CEM [2] [µg/mL] | IC50 (μg/ml) Molt 4 [3] [µg/mL] | solubility in single solvent [4]
C=C(CC[C@@H](C)[C@H]1CC[C@H]2C3=C(C(=O)C[C@]12C)[C@@]1(C)CCC(=O)[C@@H](C)C1C[C@@H]3O)[C@@H](C)C(=O)O (stereo partly drawn) [Compound E4, 7β-hydroxy-4α-methylergosta-8,24(28)-dien-3,11-dion-25R-26-oic acid] | >80 | 27.94 ± 6.44 (≈ 59.4 µM) | 54.28 ± 1.96 (≈ 115 µM) | 
C=C(CC[C@@H](C)[C@H]1CC[C@H]2C3=C(C(=O)[C@H](O)[C@]12C)[C@@]1(C)CC[C@@H](O)[C@@H](C)[C@@H]1CC3=O)C(C)C(=O)O (some centres unmarked) [Zhankuic acid C, zhankuic acid C] | >80 | >80 | >80 | 
C=C(CC[C@@H](C)[C@H]1CC[C@H]2C3=C(C(=O)C[C@]12C)[C@@]1(C)CCC(=O)[C@@H](C)C1CC3=O)[C@@H](C)C(=O)O (stereo partly drawn) [Compound E10, 4α-methylergosta-8,24(28)-dien-3,7,11-trion-25R-26-oic acid] | 23.32 ± 1.60 (≈ 49.8 µM) | 22.90 ± 7.60 (≈ 48.9 µM) | 16.44 ± 3.77 (≈ 35.1 µM) | not sufficient
C=C(CC[C@@H](C)[C@H]1CC[C@H]2C3=C(C(=O)C[C@]12C)[C@@]1(C)CCC(=O)[C@@H](C)C1CC3=O)[C@H](C)C(=O)O (stereo partly drawn) [Compound E9, 4α-methylergosta-8,24(28)-dien-3,7,11-trion-25S-26-oic acid] | 54.67 ± 8.14 (≈ 117 µM) | 21.99 ± 7.91 (≈ 46.9 µM) | 42.16 ± 2.33 (≈ 90 µM) | not sufficient
antcin K | >80 | >80 | >80 | 
3α,4β,7β-trihydroxy-4α-methylergosta-8,24(28)-dien-11-on-25S-26-oic acid [Compound E1] | >80 | >80 | >80 | 
C=C(CC[C@@H](C)[C@H]1CC[C@H]2C3=C(C(=O)C[C@]12C)[C@@]1(C)CCC(=O)[C@@H](C)C1C[C@@H]3O)[C@H](C)C(=O)O (stereo partly drawn) [Compound E3, 7β-hydroxy-4α-methylergosta-8,24(28)-dien-3,11-dion-25S-26-oic acid] | >80 | 30.681 ± 5.30 (≈ 65.2 µM) | 77.04 ± 2.78 (≈ 164 µM) | 
C=C(CC[C@@H](C)[C@H]1CC[C@H]2C3=C(C(=O)[C@H](O)[C@]12C)[C@@]1(C)CC[C@@H](O)[C@@H](C)C1CC3=O)[C@@H](C)C(=O)O (stereo partly drawn) [Compound E5, 3α,12α-dihydroxy-4α-methylergosta-8,24(28)-dien-7,11-dion-25R-26-oic acid] | >80 | >80 | >80 | 
C=C(CC[C@@H](C)[C@H]1CC[C@H]2C3=C(C(=O)C[C@]12C)[C@@]1(C)CCC(=O)[C@@H](C)[C@@H]1CC3=O)C(C)C(=O)O (some centres unmarked) [Zhankuic acid A, zhankuic acid A] | 69.98 ± 18.98 (≈ 149 µM) | 47.04 ± 6.191 (≈ 100 µM) | 53.23 ± 3.88 (≈ 114 µM) | 
C=C(CC[C@@H](C)[C@H]1CC[C@H]2C3=C(C(=O)[C@H](O)[C@]12C)[C@@]1(C)CC[C@@H](O)[C@@H](C)C1CC3=O)[C@H](C)C(=O)O (stereo partly drawn) [Compound E6, 3α,12α-dihydroxy-4α-methylergosta-8,24(28)-dien-7,11-dion-25S-26-oic acid] | >80 | >80 | >80 | 
antcin C | 47.02 ± 4.45 | 28.82 ± 6.79 | 55.02 ± 3.34 | 
C=C(CC[C@@H](C)[C@H]1CC[C@H]2C3=C(C(=O)C[C@]12C)[C@@]1(C)CC[C@@H](O)[C@](C)(O)[C@@H]1C[C@@H]3O)[C@@H](C)C(=O)O [Compound E2, 3α,4β,7β-trihydroxy-4α-methylergosta-8,24(28)-dien-11-on-25R-26-oic acid] | >80 | >80 | >80 | 
